Publication PMC8235661, “Photoelectric Dye, NK-5962, as a Potential Drug for Preventing Retinal Neurons from Apoptosis: Pharmacokinetic Studies Based on Review of the Evidence” (Life, 2021)

Tests used:
[1] = Reactive oxygen species (ROS) assay under simulated sunlight; type: physicochemical; conditions: for Reactive Oxygen Species Generation Singlet oxygen / Reactive Oxygen Species Generation Superoxide: 200 µM, simulated sunlight 1 h, mean ± standard deviation (n = 3)
Protocol: The ROS assay was designed to detect both singlet oxygen and superoxide generated from photo-irradiated chemicals. Briefly, singlet oxygen was measured in aqueous solution by spectrophotometrically monitoring the bleaching of p-nitrosodimethylaniline at 440 nm using imidazole as a selective acceptor of singlet oxygen. Samples containing the tested chemical (20 or 200 μM), p-nitrosodimethylaniline (50 μM), and imidazole (50 μM) in 20 mM sodium phosphate buffer (pH 7.4) were mixed in a tube. Each sample in 200 μL was transferred into a well of a plastic 96-well plate (clear, untreated, and flat-bottomed) and checked for precipitation under a microscope with an objective lens (×100) before light exposure. The plate was subjected to a measurement of absorbance at 440 nm using a microplate spectrophotometer. The plate was fixed in the quartz reaction container with a quartz cover and then irradiated with the simulated sunlight (ultraviolet A/B and visible light, 250 W/m^2, Suntest CPS plus, Atlas Material Testing Technology, Mount Prospect, IL, USA) for 1 h. After agitation on a plate shaker, the UV absorbance at 440 nm was measured. For the determination of superoxide, samples containing the test chemical (20 or 200 μM) and nitroblue tetrazolium (50 μM) in 20 mM sodium phosphate buffer were irradiated with the simulated sunlight for 1 h and the reduction in nitroblue tetrazolium was measured by the increase in absorbance at 560 nm in the same manner as the singlet oxygen determination. Experiments were performed in triplicate wells in three independent runs. As the final concentration, 200 μM test chemical solutions should be subjected to the ROS assay. However, when precipitation could be observed at 200 μM under the optical microscope, additional experiments should be performed under appropriate dilution (20, 50, or 100 μM).

[2] = design: method as in PMID 18185985; conditions: cited from earlier work
[3] = PAMPA (parallel artificial membrane permeability assay); type: in vitro ADME
Protocol: In order to determine the passive membrane diffusion rates, the Corning Gentest Pre-coated PAMPA Plate System was used in the PAMPA test. […] The acceptor plate was then placed on top of the donor plate and incubated at 37 °C without agitation for 4 h. At the end of the incubation, the plates were separated and the solutions from each well of both the acceptor plate and the donor plate were transferred to 96-well plates and mixed with acetonitrile. The final concentrations of compound in both the donor wells and acceptor wells, as well as the concentrations of the initial donor solutions, were analyzed by LC-MS/MS. The permeability of the compound was calculated according to the previous report.

Row | Reactive Oxygen Species Generation Singlet oxygen [1] | Reactive Oxygen Species Generation Superoxide [1] | SMILES | also measured
1 | 602 ± 7 ΔA440 × 1000 | 348 ± 12 ΔA560 × 1000 | C=C[C@H]1C[N@@]2CC[C@H]1C[C@H]2[C@H](O)c1ccnc2ccc(OC)cc12 [Quinine] | –
2 | – | – | O=C(O)c1cc(/N=N/c2ccc(S(=O)(=O)Nc3ccccn3)cc2)ccc1O [sulfasarazine] | gastrointestinal absorption in human [2]: 13%
3 | – | – | Cc1cc(=O)n(-c2ccccc2)n1C [antipyrine] | Papp at 4 h, 100 μM ([3]; PAMPA, read-out: PAMPA permeability of reference compound): 11 ×10⁻⁶ cm/s
4 | Not detected | Not detected | COc1cc(O)c(C(=O)c2ccccc2)cc1S(=O)(=O)O [Sulisobenzone] | –
5 | – | – | COCCc1ccc(OCC(O)CNC(C)C)cc1 (centres unmarked) [metoprolol] | PAMPA permeability of reference compound ([3]; reference compound at 500 μM): 1.5 ×10⁻⁶ cm/s
6 | – | – | CCN1C=C\C(=C/C=C(\C=C/c2cc[n+](CC)c3ccccc23)c2cc[n+](CC)c3ccccc23)c2ccccc21.[I-].[I-] [NK-4, 1-ethyl-4-[(1Z,3E,5E)-1-(1-ethylquinolin-1-ium-4-yl)-5-(1-ethylquinolin-4-ylidene)penta-1,3-dien-3-yl]quinolin-1-ium;iodide] | phototoxicity conclusion from ROS assay [1]: less phototoxic
